One assay relates to PEDV. The assay can be described thus: Enteric clinical observation scoring (diarrhea, depression, gauntness) of nursery pigs challenged with PEDV. It is filed as in vivo, pig. Also on record: Depression score, Severity: scale not given here. The settings on record: for Depression score, Severity / Diarrhea score, Severity / Gauntness score, Severity: average of worst score of each pig over 14-d period; for Depression score, Incidence / Diarrhea score, Incidence / Gauntness score, Incidence: pigs affected/pigs; for Gauntness score, Mean of Day 0 to 14: score 0-2; for Depression score, Mean of Day 0 to 14: score 0-3; for Diarrhea score, Mean of Day 0 to 14: score 1-4. The protocol: The seventy-five piglets were randomly assigned to one of three treatment groups: control (no ionophore), narasin (30 mg/kg) and narasin (60 mg/kg). They acclimatized to their environment and were fed daily for seven days prior to exposure with PEDV on Day 0. Treatment continued for 14 days following challenge. Pigs from the three treatment groups were administered orally with 4×10^4 TCID50/mL of the PEDV isolate PEDV/USA/NC/2013/49469 (College of Veterinary Medicine, Iowa State University). The piglets were monitored daily for changes in clinical parameters, clinical score for diarrhea, depression and gauntness, rate of food consumption, and rate of body weight change and viral swabs were taken daily to determine viral shedding.
Incidence and severity of the score data (diarrhea, depression, and gauntness) were summarized by frequencies and mean scores on a daily basis.
Table 2 indicates the scoring system used to measure diarrhea, depression, and gauntness. Table 3 compares the mean scores for diarrhea, depression and gauntness in nursery pigs whose diet included 0, 30 or 60 mg/kg narasin.

In assay [1] the test system is flavivirus responsible for dengue fever. To be noted: added to cultured human cells infected with the virus (Low, et al. 2011); cited from earlier work.
Where [2] appears, read: 0, 30, 60 mg/kg feed, 14-d period.

Structures are written as SMILES.

With `CC[C@@H](C(=O)O)[C@@H]1O[C@@H]([C@@H](C)[C@H](O)[C@H](C)C(=O)[C@H](CC)[C@H]2O[C@]3(C=C[C@@H](O)[C@]4(CC[C@@](C)([C@H]5CC[C@](O)(CC)[C@H](C)O5)O4)O3)[C@H](C)C[C@@H]2C)[C@@H](C)C[C@@H]1C` [narasin], in the assay with PEDV (setting [2]), the “effect of narasin level on mean of depression scores” value is “not affected” and the “effect of narasin level on mean or severity of gauntness scores” value is given as “little effect”. Moreover, the “incidence of depression, animals” value in the assay with PEDV (30 mg/kg feed, 14-d period) is listed as 4 animals. Also, in the assay on PEDV (30 mg/kg feed), the “Depression score, Severity” value was 0.16; the “Diarrhea score, Severity” value is recorded as 2.72; the “Gauntness score, Severity” value turned out to be 0.68; the “Depression score, Incidence” value is listed as 4/25. In the assay on PEDV (30 mg/kg feed), the “Diarrhea score, Incidence” value was 19/25; the “Gauntness score, Incidence” value was 14/25; the “Gauntness score, Mean of Day 0 to 14” value was 0.14; the “Depression score, Mean of Day 0 to 14” value is 0.03. Moreover, the “Diarrhea score, Mean of Day 0 to 14” value with PEDV (30 mg/kg feed) is on record as 1.45. Moreover, the “incidence of depression, animals” value in the assay with PEDV (60 mg/kg feed, 14-d period) came out at 3 animals. Further, in the assay on PEDV (60 mg/kg feed), the “Depression score, Severity” value amounted to 0.12; the “Diarrhea score, Severity” value is given as 2.48; the “Gauntness score, Severity” value is reported as 0.52; the “Depression score, Incidence” value is 3/25. In the assay with PEDV (60 mg/kg feed), the “Diarrhea score, Incidence” value is on record as 19/25; the “Gauntness score, Incidence” value is 11/25; the “Gauntness score, Mean of Day 0 to 14” value amounted to 0.14; the “Depression score, Mean of Day 0 to 14” value came out at 0.02. Besides, the “Diarrhea score, Mean of Day 0 to 14” value with PEDV (60 mg/kg feed) came out at 1.37. Besides, the “replication of dengue flavivirus” value in assay [1] is “block replication”.

The values are drawn from patent publication US20220265597A1, “ANTIVIRAL EFFECTS OF NARASIN IN SWINE FEED” (Elanco US Inc., priority 2014, published 2022).
